Earlier results on one compound are cited in patent US20250099408A1, “IMPROVED SURAMIN METHODS AND COMPOSITIONS” (priority 2022, published 2025).

SMILES strings stand for the structures.

The data set has as its system HIV. The settings on record: suramin 1 g IV.

Turning to `Cc1ccc(C(=O)Nc2ccc(S(=O)(=O)O)c3cc(S(=O)(=O)O)cc(S(=O)(=O)O)c23)cc1NC(=O)c1cccc(NC(=O)Nc2cccc(C(=O)Nc3cc(C(=O)Nc4ccc(S(=O)(=O)O)c5cc(S(=O)(=O)O)cc(S(=O)(=O)O)c45)ccc3C)c2)c1` [suramin], the “clinical improvement of the patients” value is “did not give clinical improvements”. In addition, the “virus in the blood circulation” value (HIV patients) is “almost clearing the virus from the blood circulation”.
